Assay results published in patent publication US10556865B2, “Synergistic herbicidal composition containing certain pyridine or pyrimidine carboxylic acids and certain cereal and rice herbicides” (Dow AgroSciences, LLC, priority 2007, dated 2020).
“And” between values parts separate entries of the source, which are not always exact repeats. Identical values can stand only once. Like-named read-outs stand apart in the source and are kept apart here.

Experiments:
Assay type in all cases: in vivo
[1] = test system: canola (Brassica napus L; BRSNN); experiment: Postemergence herbicidal activity of mixtures in cereal crops (greenhouse, visual injury)
Outline: (§1)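 Seedlings were raised 7–36 days to the second or third true leaf, treated overhead at 187 L/ha with Compound A or B and a second cereal herbicide, singly or in combination, then sub-irrigated in the greenhouse. After 20–22 days injury was rated visually against blank-treated controls (0–100%), with Colby's equation giving expected values.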

[2] = test system: kochia (Kochia scoparia L; KCHSC); experiment: as above
Outline: as §1

[3] = test system: bird's-eye speedwell (Veronica persica L; VERPE); experiment: as above; conditions: for VERPE Ob: Table 28
Outline: (§2)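 Weeds grown in greenhouse (~14 h photoperiod, ~18/17 °C day/night) to second–third true leaf stage, sprayed postemergence with compound and second cereal herbicide alone or combined; solvent-blank controls. Injury scored visually after 20-22 days, 0–100% (complete kill); expected mixture activity = A+B−(A×B/100).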

[4] = test system: wild pansy (Viola tricolor L; VIOTR); experiment: as above; conditions: Viola tricolor, post-emergence, read-out: VIOTR Ob
Outline: as §2

[5] = test system: lady's-thumb (Polygonum persicaria L; POLPE); experiment: as above
Outline: as §1

[6] = test system: downy brome (Bromus tectorum L; BROTE); experiment: as above
Outline: as §1

[7] = test system: wild mustard (Sinapis arvensis L; SINAR); experiment: as above
Outline: as §1

[8] = test system: annual bluegrass (Poa annua L; POAAN); experiment: as above
Outline: as §1

[9] = test system: Italian ryegrass (Lolium multiflorum L; LOLMU); experiment: as above; conditions: for LOLMU: Table 13
Outline: as §1

[10] = test system: Ischaemum rugosum SALISB. (ISCRU); experiment: Postemergence herbicidal mixtures for weed control in direct seeded rice (greenhouse, visual % injury)
[11] = test system: Polygonum pensylvanicum L. (POLPY); experiment: as above; conditions: for % Injury Ob: POLPY

## COC(=O)c1nc(-c2ccc(Cl)c(OC)c2F)nc(N)c1Cl [Compound B Methyl, 6-amino-5-chloro-2-(4-chloro-2-fluoro-3-methoxyphenyl)pyrimidine-4-carboxylic acid methyl ester]
[1]; 8.75 g/ha alone
  BRSNN Ob: 20%
[1]; 17.5 g/ha alone
  BRSNN Ob: 35%
[1]; 35 g/ha alone
  BRSNN Ob: 50%
[1]; 70 g/ha alone
  BRSNN Ob: 55%

## O=C(O)c1c(Cl)ccc2cc(Cl)cnc12 [Quinclorac]
[2]; 140 g/ha alone
  KCHSC Ob: 0%

## COc1c(Cl)ccc(-c2cc(N)c(Cl)c(C(=O)O)n2)c1F [Compound A TEA, 4-amino-3-chloro-6-(4-chloro-2-fluoro-3-methoxyphenyl)pyridine-2-carboxylic acid]
[3]; 35 g/ha
  VERPE Ob: 75%
[3]; 70 g/ha
  VERPE Ob: 80%
[3]; 140 g/ha
  VERPE Ob: 85%
[3]; Veronica persica, post-emergence, 8.75 g/ha alone, read-out: VERPE Ob
  pest or weed control at 8.75 g/ha: 48%
[3]; Veronica persica, post-emergence, 17.5 g/ha alone, read-out: VERPE Ob
  pest or weed control at 17.5 g/ha: 68%
[3]; Veronica persica, post-emergence, 35 g/ha alone, read-out: VERPE Ob
  pest or weed control at 35 g/ha: 79%
[3]; Veronica persica, post-emergence, 35 g/ha, 1st VERPE column, read-out: VERPE Ob
  pest or weed control at 35 g/ha: 60%
[3]; Veronica persica, post-emergence, 35 g/ha, 2nd VERPE column, read-out: VERPE Ob
  pest or weed control at 35 g/ha: 75%
[3]; Veronica persica, post-emergence, 70 g/ha alone, read-out: VERPE Ob
  pest or weed control at 70 g/ha: 88%
[3]; Veronica persica, post-emergence, 70 g/ha, 1st VERPE column, read-out: VERPE Ob
  pest or weed control at 70 g/ha: 60%
[3]; Veronica persica, post-emergence, 70 g/ha, 2nd VERPE column, read-out: VERPE Ob
  pest or weed control at 70 g/ha: 80%
[3]; Veronica persica, post-emergence, 140 g/ha, 1st VERPE column, read-out: VERPE Ob
  pest or weed control at 140 g/ha: 60%
[3]; Veronica persica, post-emergence, 140 g/ha, 2nd VERPE column, read-out: VERPE Ob
  pest or weed control at 140 g/ha: 85%
[4]; 8.75 g/ha alone
  pest or weed control at 8.75 g/ha: 30%
[4]; 17.5 g/ha alone
  pest or weed control at 17.5 g/ha: 40%
[4]; 35 g/ha alone
  pest or weed control at 35 g/ha: 47%
[4]; 35 g/ha
  pest or weed control at 35 g/ha: 30%
[4]; 70 g/ha alone
  pest or weed control at 70 g/ha: 60%
[4]; 70 g/ha
  pest or weed control at 70 g/ha: 60%
[4]; 140 g/ha
  pest or weed control at 140 g/ha: 60%
[2]; 8.75 g/ha
  KCHSC Ob: 35%
[2]; 8.75 g/ha alone
  KCHSC Ob: 65%
[2]; 17.5 g/ha
  KCHSC Ob: 60%
[2]; 17.5 g/ha alone
  KCHSC Ob: 77%
[2]; 35 g/ha
  KCHSC Ob: 65%
[2]; 35 g/ha alone
  KCHSC Ob: 92%
[2]; 70 g/ha
  KCHSC Ob: 70%
[2]; 70 g/ha alone
  KCHSC Ob: 99%
[5]; 8.75 g/ha alone
  POLPE Ob: 30%
[5]; 17.5 g/ha alone
  POLPE Ob: 41%
[5]; 35 g/ha alone
  POLPE Ob: 68%
[6]; 35 g/ha, Table 15
  BROTE Ob: 0%
[6]; 35 g/ha, Table 16
  BROTE Ob: 0%
[6]; 35 g/ha, Table 18
  BROTE Ob: 0%
[6]; 70 g/ha, Table 15
  BROTE Ob: 0%
[6]; 70 g/ha, Table 16
  BROTE Ob: 0%
[6]; 70 g/ha, Table 18
  BROTE Ob: 3%
[6]; 140 g/ha, Table 15
  BROTE Ob: 0%
[6]; 140 g/ha, Table 16
  BROTE Ob: 0%
[6]; 140 g/ha, Table 18
  BROTE Ob: 3%
[7]; 8.75 g/ha
  SINAR Ob: 35%
[7]; 17.5 g/ha
  SINAR Ob: 60%
[7]; 35 g/ha
  SINAR Ob: 65%
[7]; 70 g/ha
  SINAR Ob: 70%
[8]; 35 g/ha, Table 16
  POAAN Ob: 0%
[8]; 35 g/ha, Table 17
  POAAN Ob: 0%
[8]; 70 g/ha, Table 16
  POAAN Ob: 0%
[8]; 70 g/ha, Table 17
  POAAN Ob: 0%
[8]; 140 g/ha, Table 16
  POAAN Ob: 0%
[8]; 140 g/ha, Table 17
  POAAN Ob: 0%
[9]; 35 g/ha
  LOLMU: 0%
[9]; 35 g/ha, Table 14
  LOLMU Ob: 0%
[9]; 35 g/ha, Table 17
  LOLMU Ob: 0%
[9]; 70 g/ha
  LOLMU: 0%
[9]; 70 g/ha, Table 14
  LOLMU Ob: 3%
[9]; 70 g/ha, Table 17
  LOLMU Ob: 0%
[9]; 140 g/ha
  LOLMU: 0%
[9]; 140 g/ha, Table 14
  LOLMU Ob: 3%
[9]; 140 g/ha, Table 17
  LOLMU Ob: 5%

## COC(=O)c1nc(-c2ccc(Cl)c(OC)c2F)cc(N)c1Cl [Compound A Methyl, 4-amino-3-chloro-6-(4-chloro-2-fluoro-3-methoxyphenyl)pyridine-2-carboxylic acid methyl ester]
[10]; alone 8.75 g/ha
  % Injury ISCRU Ob: 50%
[10]; alone 17.5 g/ha
  % Injury ISCRU Ob: 55%
[3]; Veronica persica, post-emergence, 17.5 g/ha, read-out: VERPE Ob
  pest or weed control at 17.5 g/ha: 45%
[3]; Veronica persica, post-emergence, 35 g/ha, read-out: VERPE Ob
  pest or weed control at 35 g/ha: 58%
[3]; Veronica persica, post-emergence, 70 g/ha, read-out: VERPE Ob
  pest or weed control at 70 g/ha: 70%
[4]; 17.5 g/ha
  pest or weed control at 17.5 g/ha: 55%
[4]; 35 g/ha
  pest or weed control at 35 g/ha: 63%
[4]; 70 g/ha
  pest or weed control at 70 g/ha: 75%
[11]; 4.38 g/ha alone
  % Injury Ob: 10%
[11]; 8.75 g/ha alone
  % Injury Ob: 50%
[11]; alone 4.38 g/ha
  % Injury POLPY Ob: 50%
[11]; alone 8.75 g/ha
  % Injury POLPY Ob: 60%
[1]; 8.75 g/ha
  BRSNN Ob: 50%
[1]; 17.5 g/ha
  BRSNN Ob: 50%
[1]; 35 g/ha
  BRSNN Ob: 50%
[1]; 70 g/ha
  BRSNN Ob: 50%
[5]; 8.75 g/ha
  POLPE Ob: 50%
[5]; 17.5 g/ha
  POLPE Ob: 50%
[5]; 35 g/ha
  POLPE Ob: 65%
[5]; 70 g/ha
  POLPE Ob: 70%
[6]; 35 g/ha, Table 8
  BROTE Ob: 0.0%
[6]; 35 g/ha, Table 9
  BROTE Ob: 0%
[6]; 35 g/ha, Table 10
  BROTE Ob: 0%
[6]; 70 g/ha, Table 8
  BROTE Ob: 0.0%
[6]; 70 g/ha, Table 9
  BROTE Ob: 0%
[6]; 70 g/ha, Table 10
  BROTE Ob: 0%
[6]; 140 g/ha, Table 8
  BROTE Ob: 13%
[6]; 140 g/ha, Table 9
  BROTE Ob: 13%
[6]; 140 g/ha, Table 10
  BROTE Ob: 13%
[7]; 17.5 g/ha
  SINAR Ob: 70% and 80%
[7]; 35 g/ha
  SINAR Ob: 80% and 85%
[7]; 70 g/ha
  SINAR Ob: 85%
[8]; 35 g/ha, Table 9
  POAAN Ob: 0%
[8]; 35 g/ha, Table 10
  POAAN Ob: 0%
[8]; 70 g/ha, Table 9
  POAAN Ob: 3%
[8]; 70 g/ha, Table 10
  POAAN Ob: 3%
[8]; 140 g/ha, Table 9
  POAAN Ob: 3%
[8]; 140 g/ha, Table 10
  POAAN Ob: 3%
[9]; 35 g/ha, Table 10
  LOLMU Ob: 3%
[9]; 70 g/ha, Table 10
  LOLMU Ob: 20%
[9]; 140 g/ha, Table 10
  LOLMU Ob: 40%
